Data as given in patent US20260373248A1, “DEGRADABLE PEPTOIDS” (Medici Therapeutics, Inc., priority 2023, published 2026).
Non-standard residues stand in square brackets, D forms with d. Residues, ends and D or L forms follow the SMILES beside them. *: point of attachment. N(3-lauroyloxypropyl)Gly = CCCCCCCCCCCC(=O)OCCCNCC(=O)O; Gly(N-(CH2)3O-octanoyl) = CCCCCCCC(=O)OCCCNCC(=O)O; N(3-imidazol-1-ylpropyl)Gly = O=C(O)CNCCCn1ccnc1; Gly(N-3-morpholinopropyl) = O=C(O)CNCCCN1CCOCC1; N(2-ethylhexyl)Gly = CCCCC(CC)CNCC(=O)O; Gly(N-dodecyl) = CCCCCCCCCCCCNCC(=O)O; For = O=C*

How the values were obtained:
[1] = tested on: firefly luciferase; test: In vivo firefly luciferase expression after intravenous injection of fLuc mRNA delivery vehicles (IVIS imaging); parameters: species or system female Balb/c mice; conditions: for Total Flux (luciferase expression): fLuc mRNA, intravenous, Balb/c mice; for Total Flux: mice, 2.5 ug fLuc mRNA intravenously, 6 hours post-injection
How it was run: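 Female Balb/c mice (6-8 weeks) given 2.5 ug fLuc mRNA in Nutshells IV. At 6 hours, IP D-luciferin (30 mg/mL, 10 μL/g) under isoflurane; IVIS imaging 10 minutes later, then harvested organs imaged ex vivo. Read-out: total photon flux in regions of interest.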

[2] = Peptoid quantity remaining in liver by HPLC-TOF mass spectrometry; assay type: in vivo; conditions: liver homogenate
How it was run: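 Whole liver weighed; 20 mg tissue bead-homogenized in IPA/MeOH (8/2) with internal standard, centrifuged, supernatant run on BEH C8 HPLC-TOF MS. Peptoid concentration derived from linear calibration curve (0.2-50 μg/g) prepared in spiked untreated liver.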

[3] = tested on: mRNA; test: mRNA encapsulation (modified Quant-iT RiboGreen assay); assay type: physicochemical; conditions: for mean percent encapsulation of RNA: RiboGreen, without vs with Triton X-100; for % Encapsulation: mRNA
How it was run: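 Peptoid nanoparticles were incubated with Triton X-100 for 10 min to release entrapped mRNA, then mixed with RiboGreen reagent and read by fluorescence (ex 485 nm/em 530 nm). Percent encapsulation was derived from the ratio of fluorescence without versus with Triton X-100.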

[4] = tested on: hEPO; test: Quantification of hEPO in serum after IV injection of mRNA (Human EPO ELISA); assay type: in vivo; conditions: Balb/c mice, 2.5 μg mRNA IV, serum after 6 hours
How it was run: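 Balb/c mice received 2.5 μg mRNA encoding human EPO by IV injection; serum was collected after 6 hours. hEPO was measured by sandwich ELISA (biotin-conjugate, streptavidin-HRP, TMB, A450) against kit standards (mIU/mL) and an external standard (ng/mL), with values interpolated and corrected for dilution.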

[5] = Delivery vehicle size and polydispersity by dynamic light scattering; assay type: physicochemical
How it was run: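 LNPs made by microfluidic mixing of ethanolic peptoid/DSPC/cholesterol/DMG-PEG2000 (20:1.79:7.16:1.84 by weight) with mRNA in 10 mM citrate pH 5.0 at 1:3 by volume, then dialyzed overnight at 4 °C against tris-sucrose pH 7.4. Size and PDI read by dynamic light scattering in PBS.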

[6] = tested on: luciferase; test: Luciferase expression after local (intramuscular or subcutaneous) administration of mRNA; assay type: in vivo; conditions: mRNA 0.01 mpk, 6 hours; for IM Flux: intramuscular; for SC Flux: subcutaneous
How it was run: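 Female Balb/c mice (6-8 weeks) received fLuc mRNA in aminolipidated peptoid Nutshells at 0.01 mpk subcutaneously or intramuscularly, or 0.1 mpk intratumorally. At 6 hours, anesthetized mice were given D-luciferin IP and imaged 10 minutes later; harvested organs were also imaged and total photon flux quantified in regions of interest.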

[7] = DLS in PBS, peptoid:DSPC:Cholesterol:DMG-PEG2000 weight ratio 20:1.79:7.16:1.84, mRNA

Compound | Total Flux (luciferase expression) ([1]; formulation recipe D22) [p/s] | Total Flux (luciferase expression) ([1]; formulation recipe F2) [p/s] | Total Flux (luciferase expression) ([1]; formulation recipe X29) [p/s] | Total Flux (luciferase expression) ([1]; formulation recipe X145) [p/s] | Total Flux [1] [p/s] | % of injected dose remaining in liver [2] [%] | mean percent encapsulation of RNA [3] [%] | % Encapsulation ([3]; formulation recipe D22) [%] | % Encapsulation ([3]; formulation recipe F2) [%] | % Encapsulation ([3]; formulation recipe X29) [%] | % Encapsulation ([3]; formulation recipe X145) [%] | hEPO [4] [ng/mL] | PDI [5, 7] | Particle Size [5, 7] [nm] | Particle Size ([5]; formulation recipe D22) [nm] | Particle Size ([5]; formulation recipe F2) [nm] | Particle Size ([5]; formulation recipe X29) [nm] | Particle Size ([5]; formulation recipe X145) [nm] | IM Flux [6] [p/s] | SC Flux [6] [p/s]
CCCCCCCCCCCC(=O)OCCCN(CC(=O)N(CC(=O)N(CCCn1ccnc1)CC(=O)N(CC(=O)N(CCCOC(=O)CCCCCCCCCCC)CC(=O)N(CC(N)=O)CC(CC)CCCC)CC(CC)CCCC)CC(CC)CCCC)C(=O)CN(C=O)CC(CC)CCCC (stereo not drawn) [Compound 82] (For-[N(2-ethylhexyl)Gly][N(3-lauroyloxypropyl)Gly][N(2-ethylhexyl)Gly][N(3-imidazol-1-ylpropyl)Gly][N(2-ethylhexyl)Gly][N(3-lauroyloxypropyl)Gly][N(2-ethylhexyl)Gly]-NH2) | 2.62E+09 | 4.10E+08 | 2.83E+09 | 5.70E+09 | 2.62E+09 | 15.77 | 70.7 | 70.7 | 75.3 | 62.0 | 70.9 | 600 | 0.163 | 81.5 | 81.5 | 65.9 | 72.1 | 80.7 | 1.24E+08 | 1.41E+08
CCCCCCCCCCCCN(C=O)CC(=O)N(CCCOC(=O)CCCCCCC)CC(=O)N(CC(=O)N(CCCN1CCOCC1)CC(=O)N(CC(=O)N(CCCOC(=O)CCCCCCC)CC(=O)N(CCCCCCCCCCCC)CC(N)=O)CC(CC)CCCC)CC(CC)CCCC (stereo not drawn) [Compound 116] (For-[Gly(N-dodecyl)][Gly(N-(CH2)3O-octanoyl)][N(2-ethylhexyl)Gly][Gly(N-3-morpholinopropyl)][N(2-ethylhexyl)Gly][Gly(N-(CH2)3O-octanoyl)][Gly(N-dodecyl)]-NH2) | – | 1.60E+09 | – | – | 3.82E+09 | 15.67 | 32.6 | – | 67.8 | – | – | 269 | 1.000 | 88.9 | – | 71.4 | – | – | 7.83E+07 | 3.53E+08
CCCCCCCCCCCC(=O)OCCCN(CC(=O)N(CC(=O)N(CC(=O)N(CCCn1ccnc1)CC(=O)N(CC(=O)N(CC(=O)N(CCCOC(=O)CCCCCCCCCCC)CC(=O)N(CC(N)=O)CC(CC)CCCC)Cc1ccco1)CC(CC)CCCC)CC(CC)CCCC)Cc1ccco1)C(=O)CN(C=O)CC(CC)CCCC (stereo not drawn) [Compound 100] | – | – | – | – | 2.32E+08 | 19.76 | 68.4 | – | – | – | – | 59.4 | 0.103 | 109.3 | – | – | – | – | 4.86E+07 | 6.16E+07
